Source: publication PMC6566875, “Synthesis and characterisation of a new benzamide-containing nitrobenzoxadiazole as a GSTP1-1 inhibitor endowed with high stability to metabolic hydrolysis” (Journal of Enzyme Inhibition and Medicinal Chemistry, 2019)
Read-outs that look alike come from different tables or passages of the source.

Experiments:
[1] = target: T1, TRAF2-GSTP1-1 complex (Homo sapiens, UniProt P09211); assay: ELISA for TRAF2-GSTP1-1 protein-protein interaction; assay type: binding; details: 20 µM compound, pH 7.0
T1 construct: made in house; host or cells: E. coli Top 10 (GSTP1-1); E. coli BL21 (DE3) (TRAF2)
Method: The formation of the TRAF2-GSTP1-1 complex was studied as previously described. Briefly, 200 µL of His-tagged TRAF2 C-terminal domain (0.005 µM in 20 mM Tris–HCl, pH 7.6, containing 150 mM NaCl and 10% glycerol) were added to each well of a 96-well His-Sorb plate (Qiagen, Hilden, Germany) and incubated overnight, at 4 °C, on a rocking platform. Afterwards, wells were washed with PBS and incubated for 30 min with GSTP1-1 (concentration range from 0.1 to 2 µM) in 10 mM potassium phosphate buffer, pH 7.0, containing 0.1 mM EDTA. Incubation with GSTP1-1 was also performed in the presence of 1 (20 µM), 3 (20 µM) or 4 (20 µM), both in the absence and presence of GSH (1 mM). At the end of incubation, the wells were washed with PBS and then filled with 200 µL of a mouse anti-GSTP1-1 antibody (Cell Signalling, Beverly, MA, USA; 1:1000 in TBS containing 0.1% Tween and 5% non-fat dry milk) for 2 h at room temperature. Subsequently, wells were washed with PBS and incubated with an antimouse IgG antibody (Cell Signalling; 1:1000 in TBS containing 0.1% Tween and 5% non-fat dry milk) for 45 min at room temperature. The immunocomplexes were detected by the addiction of 200 µL/well of the 1-Step-Turbo TMB substrate solution (Pierce, Rockford, IL, USA). The reaction was stopped after 10 min by the addition of 50 µL of 2M H2SO4, and the absorbance was measured at 450 nm. Data were analysed by fitting to Equation (1) where ν is the percentage of the saturated binding sites of TRAF2; [P]t and [L]t are the total concentrations of monomeric GSTP1-1 and TRAF2, respectively.

[2] = target: T2, human GSTP1-1 (Homo sapiens, UniProt P09211); assay: GSTP1-1 catalytic activity inhibition (CDNB-GSH conjugation, spectrophotometric); assay type: biochemical; details: detergent-free buffer
T2 construct: made in house; host or cells: E. coli Top 10
Method: The enzymatic activity of GSTP1-1 (20 nM subunits) was spectrophotometrically assayed at 340 nm (ε = 9,600 M^−1 cm^−1) and at 25 °C, by measuring the rate of 1-cloro-2,4-dinitrobenzene (CDNB) conjugation with GSH as a function of time[20]. The assay mixture contained 1 mM GSH and 1 mM CDNB in 1 mL of buffer B (0.1 M potassium phosphate buffer, pH 6.5 containing 0.1 mM EDTA).

[3] = target: T2, human GSTP1-1; details: 1 mM GSH, 1 mM CDNB, pH 6.5, 25 °C; read-out: GSTP1-1 inhibition assay IC50; cited from earlier work

T1 sequence (P09211 2-210 limits assumed, one chain of several): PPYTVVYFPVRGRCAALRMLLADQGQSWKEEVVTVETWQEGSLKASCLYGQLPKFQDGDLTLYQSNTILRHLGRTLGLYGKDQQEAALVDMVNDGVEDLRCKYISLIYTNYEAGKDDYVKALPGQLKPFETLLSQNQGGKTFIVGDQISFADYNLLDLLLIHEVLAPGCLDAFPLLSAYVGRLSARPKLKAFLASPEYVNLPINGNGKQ
T2 sequence (P09211 2-210 limits assumed): as the sequence (P09211 2-210 limits assumed, one chain of several) above

Row | SMILES | Effect on TRAF2-GSTP1-1 complex formation ([1]; presence of GSH (1 mM)) | Maximal inhibition of GSTP1-1 conjugation activity ([2]; 0.01-20 µM compound) | IC50 [3] | IC50 ([2]; 1 mM GSH, 1 mM CDNB, pH 6.5, 25 °C) | Ki ([2]; 1 mM GSH, 1 mM CDNB, pH 6.5, 25 °C, read-out: Ki app (GSTP1-1 enzyme activity)) | Extent of inhibition of GSTP1-1 enzyme activity ([2]; 0.01-20 µM compound) | Effect on TRAF2-GSTP1-1 complex formation ([1]; absence of GSH)
1 | O=[N+]([O-])c1ccc(SCCCCCCO)c2nonc12 [Compound 1, 6-((7-nitrobenzo[c][1,2,5]oxadiazol-4-yl)thio)hexan-1-ol, reference compound] | overlaps those obtained with 3 and 4 |  |  |  |  |  | 
2 | O=C(OCCCCCCSc1ccc([N+](=O)[O-])c2nonc12)c1ccccc1 [Compound 3, 6-((7-nitrobenzo[c][1,2,5]oxadiazol-4-yl)thio)hexyl benzoate, reference compound] |  | no more than 50% | 600 ± 300 nM |  |  |  | 
3 | O=C(NCCCCCCSc1ccc([N+](=O)[O-])c2nonc12)c1ccccc1 [Compound 4, N-(6-((7-nitrobenzo[c][1,2,5]oxadiazol-4-yl)thio)hexyl)benzamide] | inhibited TRAF2-GST-P1-1 complex formation |  |  | 700 ± 100 nM | 700 ± 100 nM | completely inhibited | inhibited TRAF2-GST-P1-1 complex formation
